From patent US20240174637A1, “DEGRADERS OF GRK2 AND USES THEREOF” (Sonata Therapeutics, Inc., priority 2021, published 2024)
Like-named read-outs stand apart in the source and are kept apart here.

Legend:
[1] = biological target: T1, GRK2 (Homo sapiens, UniProt P25098); test: GRK2 Inhibition Assay (TR-FRET, Example 1); assay type: biochemical; conditions: TR-FRET, 7 μM ATP; read-out: Enzymatic GRK2 Assay: IC50 (nM) (Example 1)
T1 sequence (P25098 1-689): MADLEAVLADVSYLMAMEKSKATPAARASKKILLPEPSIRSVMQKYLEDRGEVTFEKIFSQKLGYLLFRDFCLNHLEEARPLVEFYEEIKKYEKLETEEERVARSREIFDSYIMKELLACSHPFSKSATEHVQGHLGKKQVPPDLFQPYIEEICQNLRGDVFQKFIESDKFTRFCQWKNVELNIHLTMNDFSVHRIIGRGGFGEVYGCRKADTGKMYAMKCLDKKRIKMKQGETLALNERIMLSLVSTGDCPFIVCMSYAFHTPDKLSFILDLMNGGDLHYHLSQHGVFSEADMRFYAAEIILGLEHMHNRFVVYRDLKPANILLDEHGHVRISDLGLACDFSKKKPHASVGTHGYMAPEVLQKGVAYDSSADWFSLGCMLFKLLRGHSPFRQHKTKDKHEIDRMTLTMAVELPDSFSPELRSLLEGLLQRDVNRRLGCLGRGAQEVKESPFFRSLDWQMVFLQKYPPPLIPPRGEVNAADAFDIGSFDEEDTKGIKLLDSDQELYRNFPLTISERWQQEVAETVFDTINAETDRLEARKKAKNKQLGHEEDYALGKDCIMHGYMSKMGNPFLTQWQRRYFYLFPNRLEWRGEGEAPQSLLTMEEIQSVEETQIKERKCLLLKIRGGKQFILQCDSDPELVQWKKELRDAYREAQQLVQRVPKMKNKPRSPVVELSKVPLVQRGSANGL
Experimental: Assay: GRK2 enzyme (1 nM final concentration) was diluted in 25 mM HEPES, 10 mM MgCl2, 2 mM DTT, 0.01% Tween-20, and 1 mM EGTA. Then the GRK2 mixture was added into ProxiPlate-384 white plate and pre-incubated for 30 min with test compounds at room temperature. ATP (7 μM final concentration) and Ulight TopoIIα (50 nM final concentration) were added into the assay plate to initiate the reaction and the mixture was incubated at room temperature for 90 min. Then, Eu anti-TopoIIα (0.12 nM final concentration), BSA (0.01% final concentration), and EDTA (11 mM final concentration) in LANCE assay buffer were added into each well. After 60 min incubation time at room temperature, TR-FRET signal was measured by EnVision plate reader.

[2] = system: PAXF1657 KO Clone #4; test: 7-day cellular proliferation assay (CellTiter-Glo), PAXF1657 KO Clone #4; assay type: cell-based
Experimental: (§1) In order to identify compounds specific for GRK2, we generated two isogenic cell line pairs of the pancreatic cancer cell line PAXF1657, a pair of cells stably overexpressing GRK2 cDNA or the control empty vector and a cell line pair of PAXF1657 GRK2 knockout clonal cells versus non-targeting control clonal cells.
(§2) Proliferation Assay: Cellular anti-proliferative activity of compounds was assessed by using the pancreatic cancer cell line, PAXF1657, stably overexpressing GRK2 cDNA or the control empty vector, as well as the parental urinary bladder cancer cell line, 5637. In addition, we also took advantage of GRK2 knockout cell lines that were generated via CRISPR. Cell lines were seeded into tissue culture treated, white-walled, 96-well plates at a density of 500 cells/well in RPMI1640 media supplemented with 10% H.I. FBS and penicillin/streptomycin. Plates were incubated overnight at 37° C., 5% CO2 to allow cells to adhere to the wells. GRK2 inhibitors were added to the cells using a 10-point dilution series with a final concentration ranging from 30 μM-0.0002 μM in 0.3% DMSO. At the time of compound addition, a set of plates, that were not treated with compounds, were collected and cell viability was measured using CellTiter-Glo (Promega). CellTiter-Glo reagent was added to the designed plates and luminescence was measuring using a Biotek Synergy plate reader. The compound treated cells were incubated for 3 days at 37° C., 5% CO2. The media was then aspirated from each well and replaced with fresh media containing GRK2 inhibitors. The compound treated cells were then incubated for an additional 4 days at 37° C., 5% CO2. Cell viability was assessed and at end of the 7-day compound treatment by CellTiterGlo.

[3] = system: PAXF1657 EV; test: 7-day cellular proliferation assay (CellTiter-Glo), PAXF1657 EV; assay type: cell-based
Experimental: as §1, §2

[4] = biological target: T1, GRK2; test: GRK2 Degradation Assay and Western Blot in PAXF1657 cells; assay type: cell-based; design: endogenous in cells; host or cells: PAXF1657; conditions: for inhibition at 0.3 µM: Conc 0.3 uM
Experimental: General Protocol: Degradation Assay and Western Blot. PAXF1657 cells were plated in 6-well, 24-well plates or 60 mm tissue culture treated dishes and incubated at 37° C. until 70% confluency. The media was aspirated, and the cells were treated with fresh media containing the compounds in the concentration range of 0 μM to 10 μM for a period of 6 to 24 hours. At the desired time points the cells were washed twice with cold PBS and lysed with lysis buffer (ice cold PBS+1% NP40 with 1/100 protease/phosphatase inhibitors) on ice for 8 mins followed by sonication at 70% intensity pulses for 10 seconds. The cells were centrifuged at 20000 g for 8 min at 4° C. The supernatants were collected and stored at −80° C.
Samples were mixed with NuPAGE LDS sample buffer and NuPAGE sample reducing buffer (3×), vortexed and heated at 95° C. for 10 min, and then analyzed by SDS-PAGE (NuPAGE 4-12%) followed by transfer to nitrocellulose membrane. […] The membranes were washed three times with TBST and incubated with GRK2 or R-actin antibodies in 5% milk in TBST at 4° C. overnight. The membranes were washed three times with TBST and incubated with anti-mouse IgG-HRP or anti-rabbit IgG-HRP at room temperature for 2 hours in 5% milk in TBST. The membranes were washed three times with TBST and developed with ECL Dura, ECL femto or ECL atto substrates.

[5] = proliferation, read-out: GeoMean IC50 (uM) PAXF1657 KO Clone #4
[6] = proliferation, read-out: GeoMean IC50 (UM) PAXF1657 EV
[7] = read-out: Degradation Assay - 3 point: Degradation (%)
[8] = Conc 1 uM, read-out: Degradation Assay - 3 point: Degradation (%)
[9] = Conc 3 uM, read-out: Degradation Assay - 3 point: Degradation (%)

Row | Structure (SMILES) | IC50 [1] | inhibition at 0.3 µM [4, 7] | inhibition at 1 µM [4, 8] | inhibition at 3 µM [4, 9] | IC50 [2, 5] | IC50 [3, 6] | also measured
1 | Cc1ncsc1-c1ccc(CNC(=O)[C@@H]2C[C@@H](O)CN2C(=O)[C@@H](NC(=O)CCCCCOCCOCCOCCCCCCOc2ccc(F)c([C@H](C)NC(=O)c3cccc(NCc4nnc(-c5ccncn5)n4C)c3)c2)C(C)(C)C)cc1 [Compound D74, (2S,4R)-1-((S)-2-(tert-butyl)-22-(4-fluoro-3-((S)-1-(3-(((4-methyl-5-(pyrimidin-4-yl)-4H-1,2,4-triazol-3-yl)methyl)amino)benzamido)ethyl)phenoxy)-4-oxo-10,13,16-trioxa-3-azadocosan-1-oyl)-4-hydroxy-N-(4-(4-methylthiazol-5-yl)benzyl)pyrrolidine-2-carboxamide] | 100 to 1000 nM |  |  |  |  |  | 
2 | C[C@H](NC(=O)c1cccc(NCc2nnc(-c3ccncn3)n2C)c1)c1cccc(OCCCCCCOCCOCCOCCCCCC(=O)Nc2cccc3c2CN(C2CCC(=O)NC2=O)C3=O)c1 (stereo partly drawn) [Compound D55, N-((1S)-1-(3-((6-(2-(2-((6-((2-(2,6-dioxopiperidin-3-yl)-1-oxoisoindolin-4-yl)amino)-6-oxohexyl)oxy)ethoxy)ethoxy)hexyl)oxy)phenyl)ethyl)-3-(((4-methyl-5-(pyrimidin-4-yl)-4H-1,2,4-triazol-3-yl)methyl)amino)benzamide] | < 100 nM |  |  |  |  |  | 
3 | C[C@@H](NC(=O)c1cccc(NCc2nnc(-c3ccncn3)n2C)c1)c1cc(OCCCCCCOCCOCCOCCCCCC(=O)Nc2cccc3c2CN(C2CCC(=O)NC2=O)C3=O)ccc1F (stereo partly drawn) [Compound D54, N-((1R)-1-(5-((6-(2-(2-((6-((2-(2,6-dioxopiperidin-3-yl)-1-oxoisoindolin-4-yl)amino)-6-oxohexyl)oxy)ethoxy)ethoxy)hexyl)oxy)-2-fluorophenyl)ethyl)-3-(((4-methyl-5-(pyrimidin-4-yl)-4H-1,2,4-triazol-3-yl)methyl)amino)benzamide] | < 100 nM |  |  |  |  |  | 
4 | Cc1ncsc1-c1ccc(CNC(=O)[C@@H]2C[C@@H](O)CN2C(=O)C(NC(=O)CCCCc2cn(CCCCCCOc3cccc(CNC(=O)c4cccc(NCc5nnc(-c6ccncn6)n5C)c4)c3)nn2)C(C)(C)C)cc1 (some centres unmarked) [Compound D84] | < 100 nM |  |  |  |  |  | 
5 | C[C@H](NC(=O)c1cccc(NCc2nnc(-c3ccncn3)n2C)c1)c1cc(OCCCCCCOCCOCCOCCCCCC(=O)Nc2cccc3c2CN(C2CCC(=O)NC2=O)C3=O)ccc1F (stereo partly drawn) [Compound D53, N-((1S)-1-(5-((6-(2-(2-((6-((2-(2,6-dioxopiperidin-3-yl)-1-oxoisoindolin-4-yl)amino)-6-oxohexyl)oxy)ethoxy)ethoxy)hexyl)oxy)-2-fluorophenyl)ethyl)-3-(((4-methyl-5-(pyrimidin-4-yl)-4H-1,2,4-triazol-3-yl)methyl)amino)benzamide] | 100 to 1000 nM |  |  |  |  |  | 
6 | Cc1ncsc1-c1ccc(CNC(=O)[C@@H]2C[C@@H](O)CN2C(=O)[C@@H](NC(=O)CCCCCOCCOCCOCCCCCCOc2ccc(F)c([C@@H](C)NC(=O)c3cccc(NCc4nnc(-c5ccncn5)n4C)c3)c2)C(C)(C)C)cc1 [Compound D75, (2S,4R)-1-((S)-2-(tert-butyl)-22-(4-fluoro-3-((R)-1-(3-(((4-methyl-5-(pyrimidin-4-yl)-4H-1,2,4-triazol-3-yl)methyl)amino)benzamido)ethyl)phenoxy)-4-oxo-10,13,16-trioxa-3-azadocosan-1-oyl)-4-hydroxy-N-(4-(4-methylthiazol-5-yl)benzyl)pyrrolidine-2-carboxamide] | < 100 nM |  |  |  |  |  | 
7 | Cc1ncsc1-c1ccc(CNC(=O)[C@@H]2C[C@@H](O)CN2C(=O)[C@@H](NC(=O)CCOCCOCCOCCNC(=O)CCCCOc2cccc(CNC(=O)c3cccc(NCc4nnc(-c5ccncn5)n4C)c3)c2)C(C)(C)C)cc1 [Compound D115] |  |  |  |  |  |  | IC50 ([2]; 168 h, 7-day, read-out: 7-day proliferation assay: IC50 GeoMean (uM) [Cell Line: PAXF1657 KO Clone #4]): 1 to 10 µM; IC50 ([3]; 168 h, 7-day, read-out: 7-day proliferation assay: IC50 GeoMean (uM) [Cell Line: PAXF1657 EV]): > 10 µM; inhibition at 1 µM ([4]; 1 uM, PAXF1657 EV, 24 hrs, read-out: % GRK2 degradation at 1 uM in PAXF1657 EV (24 hrs)): -14%; inhibition at 3 µM ([4]; 3 uM, PAXF1657 EV, 24 hrs, read-out: % GRK2 degradation at 3 uM in PAXF1657 EV (24 hrs)): -2%

The next lines start with results.

Row | IC50 [1] | inhibition at 0.3 µM [4, 7] | inhibition at 1 µM [4, 8] | inhibition at 3 µM [4, 9] | Structure (SMILES) | IC50 [2, 5] | IC50 [3, 6] | also measured
8 |  | 29.1% | 29.5% | 21.3% | Cc1ncsc1-c1ccc(CNC(=O)[C@@H]2C[C@@H](O)CN2C(=O)[C@@H](NC(=O)COCCCOCCCCCOc2cccc([C@@H](C)NC(=O)c3cccc(NCc4nnc(-c5ccncn5)n4C)c3)c2)C(C)(C)C)cc1 [Compound D182, (2S,4R)-1-((S)-3,3-dimethyl-2-(2-(3-((5-(3-((R)-1-(3-(((4-methyl-5-(pyrimidin-4-yl)-4H-1,2,4-triazol-3-yl)methyl)amino)benzamido)ethyl)phenoxy)pentyl)oxy)propoxy)acetamido)butanoyl)-4-hydroxy-N-(4-(4-methylthiazol-5-yl)benzyl)pyrrolidine-2-carboxamide] | 10 µM | 0.12 µM | DC50 ([4]; PAXF1657, 24 h, read-out: Degradation Assay - Full Dose Response: IC50 (uM) [cell line: PAXF1657, time point: 24 h]): 0.38 µM
9 |  | 17.1% | 14.1% | 42.6% | C[C@@H](NC(=O)c1cccc(NCc2nnc(-c3ccncn3)n2C)c1)c1cccc(OCCCCCn2cc(CCCCC(=O)Nc3cccc4c3CN(C3CCC(=O)NC3=O)C4=O)nn2)c1 (some centres unmarked) [Compound D164] | > 30 µM | 5.09 µM | 
10 |  | 2.78% | 35.8% | 58.5% | Cn1c(CNc2cccc(C(=O)NCc3cccc(OCCCCCOCCCOCC(=O)N4CCN(c5ccc6c(c5)CN(C5CCC(=O)NC5=O)C6=O)CC4)c3)c2)nnc1-c1ccncn1 (centres unmarked) [Compound D189, N-(3-((5-(3-(2-(4-(2-(2,6-dioxopiperidin-3-yl)-1-oxoisoindolin-5-yl)piperazin-1-yl)-2-oxoethoxy)propoxy)pentyl)oxy)benzyl)-3-(((4-methyl-5-(pyrimidin-4-yl)-4H-1,2,4-triazol-3-yl)methyl)amino)benzamide] | > 30 µM | 0.42 µM | 
